Molecular target: NSD2 [1-1365] (Homo sapiens (Human), UniProt O96028)
Test: LC-MS/MS-based NSD2 enzymatic assay (SAH production)
Type: biochemical
Details: read-out: NSD2 IC50
Description: LC-MS/MS-Based NSD2 Enzymatic Assay
This assay employed LC-MS/MS technology to monitor the SAH production from the NSD2 enzymatic reaction. The enzymatic reaction was performed in white proxiplate plus 384-well microplate (Perkin Elmer). The reaction mixture (10 μL) were composed of 8 nM NSD2 [1-1365], […] SAM (USB, 10601) and 400 nM nucleosome (purified from mouse liver) in reaction buffer (20 mM Tris-HCl, pH at 8.0, 0.01% Tween 20, 10 mM MgCl2, 50 mM NaCl, 1 mM DTT, 1 mM TCEP (pH7.5)). After 90 min incubation at room temperature, 3 μL quenching solution containing 2.5% TFA with 320 nM d4-SAH was added to stop the reaction.
For the inhibition assay, compound solutions were transferred into the wells by Mosquito™ (TTP LabTech). The inhibition assays were carried out by preincubating various concentrations of the inhibitor with 5 uL reaction mixture containing 16 nM NSD2 [1-1365] and 2 uM SAM (USB, 10601) in reaction buffer. After 20 min preincubation, 5 uL solution containing 800 nM nucleosome (purified from mouse liver) in reaction buffer was added to initiate the reaction. The reaction was stopped by 3 μL quenching solution containing 2.5% TFA with 320 nM d4-SAH after 90 min.
The SAH production from the enzymatic assays were monitored by LC-MS/MS on an API 4000 triple quadrupole mass spec with Turbolon Spray (Applied Biosystem) coupled with Prominenece UFLC(Shimazu). Liquid chromatography was performed on a Chromolith FastGradient HPLC column (RP-18e, 25-2 mm, from Merck) at a flow rate of 0.8 ml/min. The column was connected directly to the turbo ion electrospray operating in the positive-ion mode. Mobile phase A is 0.1% FA and 2% methanol in water and mobile phase B is 0.1% FA in ACN. Injection volume was 3 μl and the autosampler was kept at 4 degree. SAH and d4-SAH were simultaneously monitored. Data were acquired and processed by Analyst software.
To quantify the formed SAH, d4-SAH was added as internal standard (IS). A series of SAH (Sigma, A9384) solution at varying concentration (1-500 nM in reaction buffer) was mixed with quenching solution mentioned above. Then LC-MS/MS was carried out on API 4000 LC/MS/MS system to detect both SAH and d4-SAH. The plot of SAH peak area/IS peak area vs SAH concentration was used to generate the normalization factor of SAH. The SAH production from real enzymatic reaction was derived from the standard curve of SAH. The down-limit of our system for the detection of SAH is around 1-2 nM, and the linear range can reach up to 500 nM.

NSD2 [1-1365], sequence (O96028 whole entry): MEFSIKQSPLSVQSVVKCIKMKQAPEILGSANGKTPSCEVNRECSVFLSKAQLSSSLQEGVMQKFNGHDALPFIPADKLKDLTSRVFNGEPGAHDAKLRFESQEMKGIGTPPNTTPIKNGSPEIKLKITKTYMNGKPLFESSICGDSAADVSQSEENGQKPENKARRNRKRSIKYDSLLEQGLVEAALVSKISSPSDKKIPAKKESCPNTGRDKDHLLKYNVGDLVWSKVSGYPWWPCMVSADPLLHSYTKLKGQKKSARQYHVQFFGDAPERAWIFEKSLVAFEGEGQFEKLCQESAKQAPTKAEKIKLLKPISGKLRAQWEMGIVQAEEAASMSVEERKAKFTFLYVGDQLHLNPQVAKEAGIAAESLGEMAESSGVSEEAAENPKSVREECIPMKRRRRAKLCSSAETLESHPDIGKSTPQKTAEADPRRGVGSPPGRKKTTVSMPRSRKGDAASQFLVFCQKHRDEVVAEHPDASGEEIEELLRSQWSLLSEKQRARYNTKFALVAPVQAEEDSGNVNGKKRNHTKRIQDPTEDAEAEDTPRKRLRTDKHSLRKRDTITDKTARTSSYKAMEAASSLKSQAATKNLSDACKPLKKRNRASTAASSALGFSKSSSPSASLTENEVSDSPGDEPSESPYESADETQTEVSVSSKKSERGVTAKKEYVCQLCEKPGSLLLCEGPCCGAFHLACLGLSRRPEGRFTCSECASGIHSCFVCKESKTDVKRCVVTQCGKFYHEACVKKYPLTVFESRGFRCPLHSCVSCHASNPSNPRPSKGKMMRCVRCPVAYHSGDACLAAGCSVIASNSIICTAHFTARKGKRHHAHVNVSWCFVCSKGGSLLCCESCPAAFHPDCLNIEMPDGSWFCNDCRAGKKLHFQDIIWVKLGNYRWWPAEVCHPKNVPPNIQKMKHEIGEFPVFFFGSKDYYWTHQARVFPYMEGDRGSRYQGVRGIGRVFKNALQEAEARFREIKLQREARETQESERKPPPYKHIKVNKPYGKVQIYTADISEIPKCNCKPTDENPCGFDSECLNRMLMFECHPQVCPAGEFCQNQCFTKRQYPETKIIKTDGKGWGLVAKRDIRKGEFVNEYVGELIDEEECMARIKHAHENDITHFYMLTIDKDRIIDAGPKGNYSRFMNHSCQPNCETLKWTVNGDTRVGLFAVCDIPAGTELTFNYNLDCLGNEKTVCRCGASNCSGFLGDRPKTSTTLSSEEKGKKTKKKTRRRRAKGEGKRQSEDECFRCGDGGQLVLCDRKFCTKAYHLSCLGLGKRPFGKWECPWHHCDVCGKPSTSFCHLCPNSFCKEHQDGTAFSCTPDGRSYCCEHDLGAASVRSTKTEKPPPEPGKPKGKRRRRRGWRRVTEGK

## CCc1cncc([C@@]2(N)CCCN(c3cnc(-c4ccc(F)cc4)cc3Cn3cnc4c(N)nccc43)C2)n1 [Example 256, (R)-1-((5-(3-amino-3-(6-ethylpyrazin-2-yl)piperidin-1-yl)-2-(4-fluorophenyl)pyridin-4-yl)methyl)-1H-imidazo[4,5-c]pyridin-4-amine]
  IC50: 0.01 to 1 µM

## Nc1nccc2c1ncn2Cc1cc(N2CCC2)ncc1N1CCCC(N)(c2cccc(Cl)n2)C1 (stereo not drawn) [Example 265, 1-((5-(3-amino-3-(6-chloropyridin-2-yl)piperidin-1-yl)-2-(azetidin-1-yl)pyridin-4-yl)methyl)-1H-imidazo[4,5-c]pyridin-4-amine]
  IC50: > 1 µM

## Nc1ncnc2c1ncn2Cc1cc(-c2ccc(F)cc2)ncc1N1CCC[C@](N)(c2ccn(C(F)F)n2)C1 [Example 273, (R)-9-((5-(3-amino-3-(1-(difluoromethyl)-1H-pyrazol-3-yl)piperidin-1-yl)-2-(4-fluorophenyl)pyridin-4-yl)methyl)-9H-purin-6-amine]
  IC50: 0.001 to 0.01 µM

## Cn1ccc([C@@]2(N)CCCN(c3cnc(-c4ccc(F)c(F)c4)cc3Cn3cnc4c(N)ncnc43)C2)n1 [Example 275, (R)-9-((5-(3-amino-3-(1-methyl-1H-pyrazol-3-yl)piperidin-1-yl)-2-(3,4-difluorophenyl)pyridin-4-yl)methyl)-9H-purin-6-amine]
  IC50: 0.001 to 0.01 µM

## CCn1ccc([C@@]2(N)CCCN(c3cnc(C4CC4)cc3Cn3cnc4c(N)nccc43)C2)n1 [Example 276, (R)-1-((5-(3-amino-3-(1-ethyl-1H-pyrazo1-3-yl)piperidin-1-yl)-2-cyclopropylpyridin-4-yl)methyl)-1H-imidazo[4,5-c]pyridin-4-amine]
  IC50: 0.01 to 1 µM

## Nc1nccc2c1ncn2Cc1cc(-c2ccc(F)cc2)ncc1N1CCC[C@](N)(c2ccn(C(F)F)n2)C1 [Example 279, (R)-1-((5-(3-amino-3-(1-(difluoromethyl)-1H-pyrazol-3-yl)piperidin-1-yl)-2-(4-fluorophenyl)pyridin-4-yl)methyl)-1H-imidazo[4,5-c]pyridin-4-amine]
  IC50: 0.001 to 0.01 µM

## Nc1ncnc2c1ncn2Cc1cc(-c2ccc(F)c(F)c2)ncc1N1CCCC(N)(C(F)CF)C1 (stereo not drawn) [Example 287, 9-((5-(3-amino-3-(1,2-difluoroethyl)piperidin-1-yl)-2-(3,4-difluorophenyl)pyridin-4-yl)methyl)-9H-purin-6-amine]
  IC50: 0.01 to 1 µM

## Nc1ncnc2c1ncn2Cc1cc(-c2ccc(F)c(F)c2)ncc1N1CCC[C@]2(COC(=O)N2)C1 [Example 292, (R)-7-(4-((6-amino-9H-purin-9-yl)methyl)-6-(3,4-difluorophenyl)pyridin-3-yl)-3-oxa-1,7-diazaspiro[4.5]decan-2-one]
  IC50: 0.01 to 1 µM

## CS(=O)(=O)CC1(N)CCCN(c2cnc(-c3ccc(F)c(F)c3)cc2Cn2cnc3c(N)ncnc32)C1 (stereo not drawn) [Example 298, 9-((5-(3-amino-3-((methylsulfonyl)methyl)piperidin-1-yl)-2-(3,4-difluorophenyl)pyridin-4-yl)methyl)-9H-purin-6-amine]
  IC50: > 1 µM

## Nc1ncnc2c1ncn2Cc1cc(-c2ccc(F)c(F)c2)ncc1N1CCCC(N)(C(F)C(F)F)C1 (stereo not drawn) [Example 300, 9-((5-(3-amino-3-(1,2,2-trifluoroethyl)piperidin-1-yl)-2-(3,4-difluorophenyl)pyridin-4-yl)methyl)-9H-purin-6-amine]
  IC50: 0.01 to 1 µM

## Nc1ncnc2c1ncn2Cc1cc(-c2ccc(F)c(F)c2)ncc1N1CCC(O)C(N)(CC(F)F)C1 (stereo not drawn) [Example 301, 3-amino-1-(4-((6-amino-9H-purin-9-yl)methyl)-6-(3,4-difluorophenyl)pyridin-3-yl)-3-(2,2-difluoroethyl)piperidin-4-ol]
  IC50: 0.01 to 1 µM

## C[C@@H]1CN(c2cnc(-c3ccc(F)cc3)cc2Cn2cnc3c(N)ncnc32)C[C@@](N)(CC(F)F)C1 [Example 307, 9-((5-((3S,5S)-3-amino-3-(2,2-difluoroethyl)-5-methylpiperidin-1-yl)-2-(4-fluorophenyl)pyridin-4-yl)methyl)-9H-purin-6-amine]
  IC50: > 1 µM

From US11420970B1 (NOVARTIS AG, priority 2019, dated 2022)
